Measured values published in ChEMBL document CHEMBL4507276 (2021).

What was measured:
[1] = target: Protein kinase C epsilon type (Homo sapiens) (UniProt Q02156); conditions: Compound concentration 1000.0 nM
[2] = target: Histamine H2 receptor (Homo sapiens) (UniProt P25021); assay: H2/H Eurofins-Panlabs selectivity data (BI); conditions: Compound concentration 10.0 uM
[3] = target: Phosphatidylinositol 3-kinase catalytic subunit type 3 (Homo sapiens) (UniProt Q8NEB9); assay: PIK3C3 Invitrogen selectivity data (BI); conditions: Compound concentration 3.0 uM
[4] = target: T1, Serine/threonine-protein kinase D2 (Homo sapiens) (UniProt Q9BZL6); assay: PRKD2 Invitrogen selectivity data (BI); conditions: Compound concentration 3.0 uM
T1 sequence (whole entry): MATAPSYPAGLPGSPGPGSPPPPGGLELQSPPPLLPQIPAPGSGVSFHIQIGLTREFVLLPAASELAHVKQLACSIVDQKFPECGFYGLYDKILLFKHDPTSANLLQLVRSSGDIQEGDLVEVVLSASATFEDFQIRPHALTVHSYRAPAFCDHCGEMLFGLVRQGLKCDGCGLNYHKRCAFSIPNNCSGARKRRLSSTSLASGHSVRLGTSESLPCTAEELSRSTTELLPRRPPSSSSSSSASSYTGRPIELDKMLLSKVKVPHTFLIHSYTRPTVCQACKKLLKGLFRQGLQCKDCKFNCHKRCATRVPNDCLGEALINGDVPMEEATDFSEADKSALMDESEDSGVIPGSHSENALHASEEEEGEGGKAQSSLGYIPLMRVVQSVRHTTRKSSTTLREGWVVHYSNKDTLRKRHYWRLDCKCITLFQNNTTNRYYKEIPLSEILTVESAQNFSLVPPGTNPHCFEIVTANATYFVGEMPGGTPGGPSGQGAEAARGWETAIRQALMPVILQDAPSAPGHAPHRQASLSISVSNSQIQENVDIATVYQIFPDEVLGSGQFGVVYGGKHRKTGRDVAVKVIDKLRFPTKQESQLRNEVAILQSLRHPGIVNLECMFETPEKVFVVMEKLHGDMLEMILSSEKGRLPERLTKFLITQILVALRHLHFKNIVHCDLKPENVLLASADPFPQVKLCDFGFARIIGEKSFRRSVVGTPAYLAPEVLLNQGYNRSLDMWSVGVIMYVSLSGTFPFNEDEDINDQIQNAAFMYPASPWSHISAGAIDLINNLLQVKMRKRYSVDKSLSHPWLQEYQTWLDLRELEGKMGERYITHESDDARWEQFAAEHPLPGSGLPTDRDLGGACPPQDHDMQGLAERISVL

[5] = target: Nicotinic acetylcholine receptor alpha-1/beta-1 (Homo sapiens) (UniProt P02708+P11230); assay: NMUSCLEH_ANTAG Cerep selectivity data (BI); type: protein-complex assay; conditions: filed as antagonist, Compound concentration 20.0 uM
[6] = target: MAO-A (amine oxidase [flavin-containing] A) (Rattus norvegicus, UniProt P21396); assay: MAO-A_ANTAG Cerep selectivity data (BI); parameters: mode of action antagonist; scale not given: the % may be the effect or the level left; conditions: compound concentration 20 uM, read-out: % Ctrl
MAO-A (amine oxidase [flavin-containing] A), sequence (P21396 whole entry): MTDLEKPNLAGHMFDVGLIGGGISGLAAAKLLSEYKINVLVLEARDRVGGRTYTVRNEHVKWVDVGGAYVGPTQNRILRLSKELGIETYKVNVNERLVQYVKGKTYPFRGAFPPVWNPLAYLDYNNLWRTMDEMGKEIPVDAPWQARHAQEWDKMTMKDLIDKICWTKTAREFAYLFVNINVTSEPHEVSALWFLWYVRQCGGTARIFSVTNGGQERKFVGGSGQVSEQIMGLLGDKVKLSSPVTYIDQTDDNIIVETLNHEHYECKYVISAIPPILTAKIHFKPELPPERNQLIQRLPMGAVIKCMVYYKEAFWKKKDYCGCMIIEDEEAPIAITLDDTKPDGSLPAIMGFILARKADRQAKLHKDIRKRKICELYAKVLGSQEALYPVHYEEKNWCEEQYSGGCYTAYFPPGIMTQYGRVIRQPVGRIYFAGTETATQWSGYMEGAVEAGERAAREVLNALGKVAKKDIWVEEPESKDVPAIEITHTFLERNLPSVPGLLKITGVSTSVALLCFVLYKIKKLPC

[7] = target: Glutamate receptor ionotropic, kainate 1 (Rattus norvegicus) (UniProt P22756); assay: KAINATE/RA Cerep selectivity data (BI); conditions: Compound concentration 20.0 uM
[8] = target: Voltage-dependent N-type calcium channel subunit alpha-1B (Rattus norvegicus) (UniProt Q02294); assay: CA+/N/RA Eurofins-Panlabs selectivity data (BI); conditions: Compound concentration 10.0 uM
[9] = target: Rod cGMP-specific 3',5'-cyclic phosphodiesterase subunit alpha (Bos taurus) (UniProt P11541); assay: PDE6_CE Cerep selectivity data (BI); conditions: Compound concentration 20.0 uM
[10] = target: P2Y purinoceptor 1 (Rattus norvegicus) (UniProt P49651); assay: P2Y/RAT Eurofins-Panlabs selectivity data (BI); conditions: Compound concentration 10.0 uM
[11] = target: D(1A) dopamine receptor (Homo sapiens) (UniProt P21728); assay: D1/HU Eurofins-Panlabs selectivity data (BI); conditions: Compound concentration 10.0 uM
D(1A) dopamine receptor (Homo sapiens), sequence (P21728 whole entry): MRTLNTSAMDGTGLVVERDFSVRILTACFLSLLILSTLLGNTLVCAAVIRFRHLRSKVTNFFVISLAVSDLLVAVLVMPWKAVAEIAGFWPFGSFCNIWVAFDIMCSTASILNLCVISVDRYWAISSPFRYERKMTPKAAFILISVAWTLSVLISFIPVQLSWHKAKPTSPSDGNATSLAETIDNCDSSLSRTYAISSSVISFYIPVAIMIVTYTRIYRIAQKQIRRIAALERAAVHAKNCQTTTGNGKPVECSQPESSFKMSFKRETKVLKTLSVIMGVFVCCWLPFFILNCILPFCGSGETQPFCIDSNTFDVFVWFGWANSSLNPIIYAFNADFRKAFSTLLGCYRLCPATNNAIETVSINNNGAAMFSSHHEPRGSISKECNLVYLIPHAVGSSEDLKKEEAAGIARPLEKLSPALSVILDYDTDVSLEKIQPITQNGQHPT

[12] = target: Tyrosine-protein kinase JAK1 (Homo sapiens) (UniProt P23458); assay: JAK1 Invitrogen selectivity data (BI); conditions: Compound concentration 3.0 uM
[13] = target: Casein kinase I isoform delta (Homo sapiens) (UniProt P48730); assay: CSNK1D Invitrogen selectivity data (BI); conditions: Compound concentration 3.0 uM
Casein kinase I isoform delta (Homo sapiens), sequence (P48730 whole entry, looked up, canonical isoform): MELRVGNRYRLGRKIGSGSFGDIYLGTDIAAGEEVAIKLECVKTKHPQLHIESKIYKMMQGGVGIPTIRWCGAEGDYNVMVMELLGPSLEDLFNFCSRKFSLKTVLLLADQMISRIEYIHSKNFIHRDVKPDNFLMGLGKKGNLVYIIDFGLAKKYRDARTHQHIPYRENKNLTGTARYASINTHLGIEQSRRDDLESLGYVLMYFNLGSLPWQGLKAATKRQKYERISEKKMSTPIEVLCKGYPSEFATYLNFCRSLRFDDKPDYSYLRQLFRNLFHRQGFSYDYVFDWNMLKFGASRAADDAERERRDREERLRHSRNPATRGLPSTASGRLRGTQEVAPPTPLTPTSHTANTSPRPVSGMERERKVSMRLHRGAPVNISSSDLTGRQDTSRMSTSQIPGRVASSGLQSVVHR

[14] = target: Protein kinase C eta type (Homo sapiens) (UniProt P24723); assay: PRKCH Invitrogen selectivity data (BI); conditions: Compound concentration 3.0 uM
Protein kinase C eta type (Homo sapiens), sequence (P24723 whole entry): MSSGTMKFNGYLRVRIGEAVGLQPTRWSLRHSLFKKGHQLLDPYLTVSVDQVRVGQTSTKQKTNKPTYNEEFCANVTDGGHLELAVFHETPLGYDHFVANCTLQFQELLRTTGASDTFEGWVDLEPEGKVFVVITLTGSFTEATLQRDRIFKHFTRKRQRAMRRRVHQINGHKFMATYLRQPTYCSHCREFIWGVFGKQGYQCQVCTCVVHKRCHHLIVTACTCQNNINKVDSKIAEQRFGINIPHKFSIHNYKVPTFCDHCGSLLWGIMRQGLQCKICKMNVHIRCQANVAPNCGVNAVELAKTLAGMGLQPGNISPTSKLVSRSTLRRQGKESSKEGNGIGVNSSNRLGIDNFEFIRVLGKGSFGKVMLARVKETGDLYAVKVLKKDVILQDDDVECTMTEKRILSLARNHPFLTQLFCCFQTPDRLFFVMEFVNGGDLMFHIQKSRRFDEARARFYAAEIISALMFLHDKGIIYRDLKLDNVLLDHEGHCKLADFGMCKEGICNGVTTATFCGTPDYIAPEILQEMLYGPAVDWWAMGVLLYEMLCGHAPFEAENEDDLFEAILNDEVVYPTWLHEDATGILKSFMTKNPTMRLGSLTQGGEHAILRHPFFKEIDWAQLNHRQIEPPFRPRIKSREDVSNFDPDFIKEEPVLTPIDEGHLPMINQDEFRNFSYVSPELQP

[15] = target: ALK tyrosine kinase receptor (Homo sapiens) (UniProt Q9UM73); assay: ALK Invitrogen selectivity data (BI); conditions: Compound concentration 3.0 uM
ALK tyrosine kinase receptor (Homo sapiens), sequence (Q9UM73 19-1620 limits assumed): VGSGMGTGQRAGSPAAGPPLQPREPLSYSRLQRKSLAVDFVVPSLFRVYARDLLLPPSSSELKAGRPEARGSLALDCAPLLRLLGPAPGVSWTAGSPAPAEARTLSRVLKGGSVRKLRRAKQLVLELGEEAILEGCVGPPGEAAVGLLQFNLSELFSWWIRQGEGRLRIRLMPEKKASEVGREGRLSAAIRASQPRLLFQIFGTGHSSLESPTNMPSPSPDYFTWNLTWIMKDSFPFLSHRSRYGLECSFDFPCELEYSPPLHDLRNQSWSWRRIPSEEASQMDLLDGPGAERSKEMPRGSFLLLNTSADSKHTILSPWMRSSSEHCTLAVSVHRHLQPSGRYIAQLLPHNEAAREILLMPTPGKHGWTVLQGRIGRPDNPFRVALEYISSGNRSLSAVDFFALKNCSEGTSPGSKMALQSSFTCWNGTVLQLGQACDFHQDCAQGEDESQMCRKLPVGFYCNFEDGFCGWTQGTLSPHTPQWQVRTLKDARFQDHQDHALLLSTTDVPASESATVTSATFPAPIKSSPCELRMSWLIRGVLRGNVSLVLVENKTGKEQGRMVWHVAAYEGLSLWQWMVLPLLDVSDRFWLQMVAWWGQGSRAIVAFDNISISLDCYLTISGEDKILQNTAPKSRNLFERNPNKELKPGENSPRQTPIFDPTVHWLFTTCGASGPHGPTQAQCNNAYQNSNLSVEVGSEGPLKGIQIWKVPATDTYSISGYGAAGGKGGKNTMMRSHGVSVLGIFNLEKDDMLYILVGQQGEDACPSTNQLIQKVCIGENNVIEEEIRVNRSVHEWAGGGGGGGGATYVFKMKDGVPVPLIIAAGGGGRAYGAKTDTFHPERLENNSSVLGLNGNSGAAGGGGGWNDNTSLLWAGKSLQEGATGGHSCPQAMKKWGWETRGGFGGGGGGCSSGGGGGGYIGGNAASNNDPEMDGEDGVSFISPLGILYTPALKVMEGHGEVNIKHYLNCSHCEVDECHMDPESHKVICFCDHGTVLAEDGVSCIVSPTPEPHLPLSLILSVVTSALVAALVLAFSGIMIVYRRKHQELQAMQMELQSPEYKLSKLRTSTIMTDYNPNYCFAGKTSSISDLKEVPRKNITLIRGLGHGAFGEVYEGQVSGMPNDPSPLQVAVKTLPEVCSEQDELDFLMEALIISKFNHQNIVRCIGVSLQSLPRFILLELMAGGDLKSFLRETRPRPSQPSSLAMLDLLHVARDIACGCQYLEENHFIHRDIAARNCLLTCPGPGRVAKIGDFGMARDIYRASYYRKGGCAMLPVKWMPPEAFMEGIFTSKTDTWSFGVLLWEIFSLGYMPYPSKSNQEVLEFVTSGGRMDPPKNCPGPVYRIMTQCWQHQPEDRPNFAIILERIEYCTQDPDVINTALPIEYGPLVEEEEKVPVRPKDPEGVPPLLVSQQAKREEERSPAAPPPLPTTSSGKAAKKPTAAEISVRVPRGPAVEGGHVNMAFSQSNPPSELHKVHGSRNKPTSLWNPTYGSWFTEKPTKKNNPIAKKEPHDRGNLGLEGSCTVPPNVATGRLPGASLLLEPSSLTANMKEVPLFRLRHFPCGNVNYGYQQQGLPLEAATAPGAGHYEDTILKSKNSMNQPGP

[16] = system: Platelet-derived growth factor receptor alpha (Homo sapiens), P16234 [D842V]; assay: PDGFRA D842V Invitrogen selectivity data (BI); conditions: Compound concentration 3.0 uM
[17] = target: 5-hydroxytryptamine receptor 7 (Homo sapiens) (UniProt P34969); assay: 5HT7/H Cerep selectivity data (BI); conditions: Compound concentration 20.0 uM
[18] = target: Serine/threonine-protein kinase PAK 1 (Homo sapiens) (UniProt Q13153); assay: PAK1 Invitrogen selectivity data (BI); conditions: Compound concentration 3.0 uM
Serine/threonine-protein kinase PAK 1 (Homo sapiens), sequence (Q13153 whole entry): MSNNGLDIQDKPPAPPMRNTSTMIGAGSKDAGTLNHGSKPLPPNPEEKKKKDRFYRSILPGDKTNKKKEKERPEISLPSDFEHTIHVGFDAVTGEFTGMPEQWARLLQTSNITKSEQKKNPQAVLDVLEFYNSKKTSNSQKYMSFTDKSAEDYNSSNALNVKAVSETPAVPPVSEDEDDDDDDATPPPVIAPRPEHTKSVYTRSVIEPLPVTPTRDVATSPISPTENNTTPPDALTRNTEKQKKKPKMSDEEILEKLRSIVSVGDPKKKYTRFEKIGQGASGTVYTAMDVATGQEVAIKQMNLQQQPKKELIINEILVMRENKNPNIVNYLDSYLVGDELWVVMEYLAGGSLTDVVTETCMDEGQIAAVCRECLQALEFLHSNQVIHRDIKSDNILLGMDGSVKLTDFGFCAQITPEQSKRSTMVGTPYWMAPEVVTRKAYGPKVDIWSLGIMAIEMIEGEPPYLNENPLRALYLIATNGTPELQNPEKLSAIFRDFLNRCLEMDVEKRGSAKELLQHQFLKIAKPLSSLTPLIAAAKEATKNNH

[19] = target: RAC-gamma serine/threonine-protein kinase (Homo sapiens) (UniProt Q9Y243); assay: AKT3 Invitrogen selectivity data (BI); conditions: Compound concentration 3.0 uM
[20] = target: T2, Activin receptor type-1B (Homo sapiens) (UniProt P36896); assay: ACVR1B Invitrogen selectivity data (BI); conditions: Compound concentration 3.0 uM
T2 sequence (whole entry): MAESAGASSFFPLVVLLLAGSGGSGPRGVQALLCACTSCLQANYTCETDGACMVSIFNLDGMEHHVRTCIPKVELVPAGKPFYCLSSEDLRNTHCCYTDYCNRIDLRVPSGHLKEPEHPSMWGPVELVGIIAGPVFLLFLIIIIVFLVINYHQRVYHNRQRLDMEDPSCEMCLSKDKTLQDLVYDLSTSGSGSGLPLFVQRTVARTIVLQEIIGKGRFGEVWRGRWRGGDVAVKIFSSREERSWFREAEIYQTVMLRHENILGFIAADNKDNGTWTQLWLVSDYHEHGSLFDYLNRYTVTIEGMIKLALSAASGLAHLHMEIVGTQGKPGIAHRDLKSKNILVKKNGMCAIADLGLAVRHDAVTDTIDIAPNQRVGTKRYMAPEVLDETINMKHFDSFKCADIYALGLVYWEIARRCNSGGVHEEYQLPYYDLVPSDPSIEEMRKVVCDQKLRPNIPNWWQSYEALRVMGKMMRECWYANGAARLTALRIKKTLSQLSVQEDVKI

[21] = target: T3, Serine/threonine-protein kinase Sgk2 (Homo sapiens) (UniProt Q9HBY8); assay: SGK2 Invitrogen selectivity data (BI); conditions: Compound concentration 3.0 uM
T3 sequence (whole entry): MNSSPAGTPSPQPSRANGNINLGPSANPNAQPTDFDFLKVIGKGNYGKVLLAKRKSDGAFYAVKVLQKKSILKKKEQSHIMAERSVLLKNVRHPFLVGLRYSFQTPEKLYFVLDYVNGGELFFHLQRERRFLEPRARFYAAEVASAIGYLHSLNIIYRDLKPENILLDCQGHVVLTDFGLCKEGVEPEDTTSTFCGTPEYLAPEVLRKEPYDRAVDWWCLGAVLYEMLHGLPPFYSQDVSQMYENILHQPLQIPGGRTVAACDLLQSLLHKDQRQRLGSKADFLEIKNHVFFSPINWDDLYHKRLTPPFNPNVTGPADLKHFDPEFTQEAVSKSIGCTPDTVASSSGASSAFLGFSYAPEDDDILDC

Protein kinase C epsilon type (Homo sapiens), sequence (Q02156 whole entry): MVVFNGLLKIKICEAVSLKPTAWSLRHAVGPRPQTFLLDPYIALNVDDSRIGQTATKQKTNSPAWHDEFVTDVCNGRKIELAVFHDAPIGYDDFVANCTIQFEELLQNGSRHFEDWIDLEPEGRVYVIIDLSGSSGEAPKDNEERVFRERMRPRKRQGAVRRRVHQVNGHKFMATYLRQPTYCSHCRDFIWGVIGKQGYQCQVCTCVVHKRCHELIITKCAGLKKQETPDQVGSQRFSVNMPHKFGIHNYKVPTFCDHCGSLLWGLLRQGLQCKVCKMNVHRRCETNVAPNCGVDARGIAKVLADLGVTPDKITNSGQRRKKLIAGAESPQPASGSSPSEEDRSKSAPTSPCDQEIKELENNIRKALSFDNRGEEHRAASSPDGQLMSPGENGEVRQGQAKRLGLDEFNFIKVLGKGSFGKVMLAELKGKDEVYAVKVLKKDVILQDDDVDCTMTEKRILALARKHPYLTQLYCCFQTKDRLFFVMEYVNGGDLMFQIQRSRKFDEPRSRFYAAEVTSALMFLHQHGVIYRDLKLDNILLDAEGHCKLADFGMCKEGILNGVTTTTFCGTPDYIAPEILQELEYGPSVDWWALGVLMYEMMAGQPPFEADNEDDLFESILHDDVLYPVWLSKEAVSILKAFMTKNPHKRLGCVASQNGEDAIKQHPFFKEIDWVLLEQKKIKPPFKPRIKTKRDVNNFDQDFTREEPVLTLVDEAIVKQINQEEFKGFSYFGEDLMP

SMILES: CN(C)C(=O)Cn1cc(-c2nc(C3(c4ccc(-c5cnc(N)nc5)cc4)CC3)no2)cn1 [BI 0153]
- residual activity [1]: 90%

SMILES: CN(C)C(=O)Cn1cc(-c2nc([C@@](C)(c3ccc(-c4cnc(N)nc4)cc3)C3CC3)no2)cn1 [BI 665915]
- residual activity [2]: 98%
- residual activity [3]: 94.5%
- residual activity [4]: 95%
- residual activity [5]: 120%
- activity at 20 µM [6]: 91% (not active)
- residual activity [7]: 82%
- residual activity [8]: 95%
- residual activity [9]: 101%
- residual activity [10]: 95%
- residual activity [11]: 108%
- residual activity [12]: 100%
- residual activity [13]: 97%
- residual activity [14]: 86%
- residual activity [15]: 97%
- residual activity [16]: 95%
- residual activity [17]: 104%
- residual activity [18]: 96%
- residual activity [19]: 102%
- residual activity [20]: 104%
- residual activity [21]: 97%
